This passage reports IC50 results from patent US6251944A, “Para-substituted phenylene derivatives” (G. D. Searle & Company, priority 1999, dated 2001).

Counter-ions that a name gives are not always drawn. Bounds are passed on as bounds.

The target in assay [1] is T1, Human fibrinogen receptor (αIIbβ3) (Homo sapiens, UniProt P05106+P08514).
T1 construct: purified from outdated platelets; from tissue; host or cells: outdated platelets (human)
Nature of the assay: Purified IIb/IIIa receptor assay (solid phase receptor assay). Particulars: inhibition of 50% of maximum binding of biotinylated vitronectin; highest concentration tested 1.0×10^-4 M. As for the experimental part:
The activity of the compounds of the present invention was tested in the following assays.
Human fibrinogen receptor (αIIbβ3) was purified from outdated platelets. […] Biotinylated human vitronectin was prepared by coupling NHS-biotin from Pierce Chemical Company (Rockford, Ill.) to purified vitronectin as previously described. […] Anti-biotin antibody was obtained from Calbiochem (La Jolla, Calif.). Linbro microtiter plates were obtained from Flow Labs (McLean, Va.). ADP reagent was obtained from Sigma (St. Louis, Mo.).
Solid Phase Receptor Assays
The purified human fibrinogen receptor (αIIbβ3) was diluted from stock solutions to 1.0 μg/mL in Tris-buffered saline containing 1.0 mM Ca^++, Mg^++, and Mn^++, pH 7.4 (TBS^+++). The diluted receptor was immediately transferred to Linbro microtiter plates at 100 μL/well (100 ng receptor/well). The plates were sealed and incubated overnight at 4° C. to allow the receptor to bind to the wells. All remaining steps were at room temperature. The assay plates were emptied and 200 μL of 1% RIA grade BSA in TBS^+++ (TBS^+++ /BSA) were added to block exposed plastic surfaces. Following a 2 hour incubation, the assay plates were washed with TBS^+++ using a 96 well plate washer. Logarithmic serial dilution of the test compound and controls were made starting at a stock concentration of 2 mM and using 2 nM biotinylated vitronectin in TBS^+++ /BSA as the diluent. This premixing of labeled ligand with test (or control) ligand, and subsequent transfer of 50 μL aliquots to the assay plate was carried out with a CETUS Propette robot; the final concentration of the labeled ligand was 1 nM and the highest concentration of test compound was 1.0×10^-4 M. The competition occurred for two hours after which all wells were washed with a plate washer as before. Affinity purified horseradish peroxidase labeled goat anti-biotin antibody was diluted 1:3000 in TBS^+++ /BSA and 125 μL were added to each well. After 30 minutes, the plates were washed and incubated with […]/H2 O2 substrate in 100 mM/L citrate buffer, pH 5.0. The plate was read with a microtiter plate reader at a wavelength of 450 nm and when the maximum-binding control wells reached an absorbance of about 1.0, the final A450 were recorded for analysis. The data were analyzed using a macro written for use with the EXCEL™ spreadsheet program. The mean, standard deviation, and % CV were determined for duplicate concentrations. The mean A450 values were normalized to the mean of four maximum-binding controls (no competitor added) (B-MAX). The normalized values were subjected to a four parameter curve fit algorithm, [Robard et al., Int.

The target of assay [2] is T2, Human vitronectin receptor(αvβ3) (Homo sapiens, UniProt P05106+P06756).
T2 construct: purified from human placenta; from tissue; host or cells: human placenta
The experiment in a line: Vitronectin adhesion assay (solid phase receptor assay, αvβ3). The note with it: inhibition of 50% of maximum binding of biotinylated vitronectin; highest concentration tested 1.0×10^-4 M; read-out: AvB3 IC50. As for the experimental part:
The activity of the compounds of the present invention was tested in the following assays. […] Assay buffer, OPD substrate tablets, and RIA grade BSA were obtained from Sigma (St. Louis, Mo.). Anti-biotin antibody was obtained from Calbiochem (La Jolla, Calif.). Linbro microtiter plates were obtained from Flow Labs (McLean, Va.). ADP reagent was obtained from Sigma (St. Louis, Mo.). […] The purified human vitronectin receptor (αvβ3) was diluted from stock solutions to 1.0 μg/mL in Tris-buffered saline containing 1.0 mM Ca^++, Mg^++, and Mn^++, pH 7.4 (TBS^+++). The diluted receptor was immediately transferred to Linbro microtiter plates at 100 μL/well (100 ng receptor/well). The plates were sealed and incubated overnight at 4° C. to allow the receptor to bind to the wells. All remaining steps were at room temperature. The assay plates were emptied and 200 μL of 1% RIA grade BSA in TBS^+++ (TBS^+++ /BSA) were added to block exposed plastic surfaces. Following a 2 hour incubation, the assay plates were washed with TBS^+++ using a 96 well plate washer. […] The competition occurred for two hours after which all wells were washed with a plate washer as before. […] After 30 minutes, the plates were washed and incubated with OPD/H2 O2 substrate in 100 mM/L Citrate buffer, pH 5.0. […] The data were analyzed using a macro written for use with the EXCEL™ spreadsheet program. The mean, standard deviation, and % CV were determined for duplicate concentrations. The mean A450 values were normalized to the mean of four maximum-binding controls (no competitor added)(B-MAX). The normalized values were subjected to a four parameter curve fit algorithm [Rodbard et al., Int. […] Ser.

T2 sequence (P06756 31-889 limits assumed): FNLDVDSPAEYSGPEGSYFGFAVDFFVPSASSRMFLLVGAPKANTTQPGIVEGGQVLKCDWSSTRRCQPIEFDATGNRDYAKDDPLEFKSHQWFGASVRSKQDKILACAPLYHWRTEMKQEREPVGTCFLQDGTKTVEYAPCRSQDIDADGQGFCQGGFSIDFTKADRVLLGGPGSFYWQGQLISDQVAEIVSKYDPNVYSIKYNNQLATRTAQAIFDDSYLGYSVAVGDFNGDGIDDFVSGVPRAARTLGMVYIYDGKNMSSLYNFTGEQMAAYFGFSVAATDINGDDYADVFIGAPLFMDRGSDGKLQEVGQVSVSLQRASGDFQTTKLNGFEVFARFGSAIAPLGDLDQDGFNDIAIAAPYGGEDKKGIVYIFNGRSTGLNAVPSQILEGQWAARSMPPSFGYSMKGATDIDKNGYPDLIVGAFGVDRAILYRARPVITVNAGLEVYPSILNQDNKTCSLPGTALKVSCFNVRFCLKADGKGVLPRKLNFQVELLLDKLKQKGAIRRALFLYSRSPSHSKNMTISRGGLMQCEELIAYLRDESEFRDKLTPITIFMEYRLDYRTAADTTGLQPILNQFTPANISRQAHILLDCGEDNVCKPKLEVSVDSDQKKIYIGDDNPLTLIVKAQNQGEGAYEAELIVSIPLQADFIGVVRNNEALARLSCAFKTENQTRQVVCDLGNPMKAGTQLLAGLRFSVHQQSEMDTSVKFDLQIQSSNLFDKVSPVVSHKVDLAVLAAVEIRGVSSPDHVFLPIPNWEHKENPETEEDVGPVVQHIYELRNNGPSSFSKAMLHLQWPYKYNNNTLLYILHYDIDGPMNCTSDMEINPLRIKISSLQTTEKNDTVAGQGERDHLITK
T2 sequence (P06756 891-1048 limits assumed): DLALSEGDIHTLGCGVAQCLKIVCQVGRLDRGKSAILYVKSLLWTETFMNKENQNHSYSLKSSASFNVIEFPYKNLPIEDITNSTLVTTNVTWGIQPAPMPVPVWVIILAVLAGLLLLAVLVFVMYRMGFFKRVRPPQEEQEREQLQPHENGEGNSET
T2 sequence (P05106 27-788): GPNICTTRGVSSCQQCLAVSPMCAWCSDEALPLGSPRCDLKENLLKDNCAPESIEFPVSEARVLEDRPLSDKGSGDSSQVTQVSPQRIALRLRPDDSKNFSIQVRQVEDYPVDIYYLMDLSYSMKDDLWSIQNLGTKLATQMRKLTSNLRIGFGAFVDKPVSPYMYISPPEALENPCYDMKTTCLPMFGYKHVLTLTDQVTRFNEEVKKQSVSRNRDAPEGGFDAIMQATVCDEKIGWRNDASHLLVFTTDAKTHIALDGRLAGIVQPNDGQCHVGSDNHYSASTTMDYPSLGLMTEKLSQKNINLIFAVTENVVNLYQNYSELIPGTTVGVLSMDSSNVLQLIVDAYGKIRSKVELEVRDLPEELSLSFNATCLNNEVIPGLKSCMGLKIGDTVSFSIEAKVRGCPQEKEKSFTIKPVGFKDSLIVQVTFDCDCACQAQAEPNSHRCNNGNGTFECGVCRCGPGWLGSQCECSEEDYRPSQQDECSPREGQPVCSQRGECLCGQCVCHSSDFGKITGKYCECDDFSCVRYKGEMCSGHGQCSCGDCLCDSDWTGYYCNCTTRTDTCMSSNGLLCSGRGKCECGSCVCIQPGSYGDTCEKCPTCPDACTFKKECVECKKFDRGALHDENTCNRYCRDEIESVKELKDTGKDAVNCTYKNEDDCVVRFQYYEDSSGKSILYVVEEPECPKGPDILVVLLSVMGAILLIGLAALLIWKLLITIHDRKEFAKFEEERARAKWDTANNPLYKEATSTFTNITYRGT
T1 sequence (P08514 32-887 limits assumed): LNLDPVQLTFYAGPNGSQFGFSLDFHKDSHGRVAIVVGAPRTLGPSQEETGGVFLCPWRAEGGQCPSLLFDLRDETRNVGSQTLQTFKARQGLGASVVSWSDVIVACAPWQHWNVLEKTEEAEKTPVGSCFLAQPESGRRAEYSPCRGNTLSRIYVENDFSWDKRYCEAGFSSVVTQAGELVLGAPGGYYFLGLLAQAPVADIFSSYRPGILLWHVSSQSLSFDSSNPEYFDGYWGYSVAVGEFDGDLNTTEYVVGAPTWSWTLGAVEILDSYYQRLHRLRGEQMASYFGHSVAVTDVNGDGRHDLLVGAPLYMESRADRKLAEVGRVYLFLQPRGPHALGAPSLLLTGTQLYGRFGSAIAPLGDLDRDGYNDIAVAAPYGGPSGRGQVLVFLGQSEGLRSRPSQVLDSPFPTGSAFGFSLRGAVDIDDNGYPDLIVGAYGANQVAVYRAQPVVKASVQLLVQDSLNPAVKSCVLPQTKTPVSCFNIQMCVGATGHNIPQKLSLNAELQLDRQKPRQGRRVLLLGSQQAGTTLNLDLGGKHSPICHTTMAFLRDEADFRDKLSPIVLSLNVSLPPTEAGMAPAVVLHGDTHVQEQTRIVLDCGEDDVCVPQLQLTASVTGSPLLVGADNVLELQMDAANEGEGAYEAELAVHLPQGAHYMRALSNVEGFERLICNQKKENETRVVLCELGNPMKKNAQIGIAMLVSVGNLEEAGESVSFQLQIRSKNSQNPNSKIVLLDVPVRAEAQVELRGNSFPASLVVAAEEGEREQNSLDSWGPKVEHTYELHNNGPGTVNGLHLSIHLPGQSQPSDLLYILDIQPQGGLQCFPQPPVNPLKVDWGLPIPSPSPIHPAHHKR
T1 sequence (P08514 891-1039 limits assumed): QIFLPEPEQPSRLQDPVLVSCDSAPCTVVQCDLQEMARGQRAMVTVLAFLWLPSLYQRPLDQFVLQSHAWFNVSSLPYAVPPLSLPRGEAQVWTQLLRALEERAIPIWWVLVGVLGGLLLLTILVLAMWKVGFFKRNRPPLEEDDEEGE
T1 sequence (P05106 27-788): as the sequence (P05106 27-788) above

As usually defined, the IC50 is the point on the concentration scale where inhibition reaches its midpoint. As for `CC(C)COC(=O)NC(Cc1ccc(NC(=O)c2cc(NC(=N)N)cc(C(F)(F)F)c2)cc1)C(=O)O` (stereo not shown) [Example 2, 4-[[[3-[(aminoiminomethyl)amino]-5-(trifluoromethyl)phenyl]carbonyl]amino]-N-[(2-methylpropoxy)carbonyl]phenylalanine, trifluoroacetate Salt], the IC50 came to 8.08 nM in assay [1] and 0.18 nM in assay [2].
The like results for `CCCCS(=O)(=O)NC(Cc1ccc(OCc2cccc(NC(=N)N)c2)cc1)C(=O)O` (stereo not shown) [Example 11, O-[[3-[(aminoiminomethyl)amino]-phenyl]methyl]-N-(butylsulfonyl)tyrosine, trifluoroacetate Salt monohydrate] were, in that order, 4 nM and 2.2 nM.
The matching figures for `N=C(N)c1cccc(C(=O)Nc2ccc(CCC(=O)O)cc2)c1` [Example 20, 4-[[[3-(Aminoiminomethyl)phenyl]carbonyl]-amino]benzenepropanoic Acid]: 39900 nM and over 100000 nM.
The matching figures for `CC(CC(=O)OC(C)(C)C)c1ccc(NC(=O)c2cccc(NC(=N)N)c2)cc1` (stereo not drawn) [Example 30, 1,1-dimethylethyl 4-[[[3-[(aminoiminomethyl)amino]phenyl]carbonyl]amino]-β-methylbenzenepropanoate, trifluoroacetate Salt]: 3260 nM and 6370 nM.
Regarding `CC(=O)NC(Cc1ccc(NC(=O)c2cccc(NC(=N)N)c2)cc1)C(=O)O` (stereo not shown) [Example 35, N-acetyl-4-[[[3-[(aminoiminomethyl)amino]-phenyl]carbonyl]amino]phenylalanine, trifluoroacetate Salt], the IC50 in assay [1] came out at 148 nM; in assay [2], 2.69 nM.
The like results for `CCOC(=O)C(Cc1ccc(NC(=O)c2cccc(NC(=N)N)c2)cc1)NC(=O)c1ccccc1` (stereo not shown) [Example 36, 4-[[[3-[(aminoiminomethyl)amino]phenyl]-carbonyl]amino]-N-(phenylcarbonyl)phenylalanine Ethyl Ester, monohydrate trifluoroacetate Salt] were, in that order, 10500 nM and 1010 nM.
The like results for `CCOC(=O)C(Cc1ccc(NC(=O)c2cccc(NC(=N)N)c2)cc1)NS(C)(=O)=O` (stereo not shown) [Example 37, 4-[[[3-[(aminoiminomethyl)amino]phenyl]carbonyl]amino]-N-(methylsulfonyl)phenylalanine Ethyl Ester, monohydrate trifluoroacetate Salt] were, in that order, 2380 nM and 97.8 nM.
The like results for `CCOC(=O)NC(Cc1ccc(NC(=O)c2cccc(NC(=N)N)c2)cc1)C(=O)OCC` (stereo not shown) [Example 38, 4-[[[3-[(aminoiminomethyl)amino]phenyl]-carbonyl]amino]-N-(ethoxycarbonyl)phenylalanine Ethyl Ester, trifluoroacetate Salt] were, in that order, 3360 nM and 106 nM.
For `CCOC(=O)C(Cc1ccc(NC(=O)c2cccc(NC(=N)N)c2)cc1)NS(=O)(=O)c1ccccc1` (stereo not shown) [Example 40, 4-[[[3-[(aminoiminomethyl)amino]phenyl]-carbonyl]amino]-N-(phenylsulfonyl)phenylalanine Ethyl Ester, monohydrate trifluoroacetate Salt], the half-maximal inhibitory concentration (IC50) was 748 nM in assay [1] and 557 nM in assay [2].
As for `COC(=O)[C@H](Cc1ccc(NC(=O)c2cccc(NC(=N)N)c2)cc1)NC(=O)OC(C)(C)C` [Example 45, 4-[[[3-[(aminoiminomethyl)amino]phenyl]-carbonyl]amino]-N-[(1,1-dimethylethoxy)carbonyl]-L-phenylalanine, methyl Ester, trifluoroacetate Salt], the 50% inhibitory concentration (IC50) in assay [1] is 603 nM; in assay [2] it was 39.4 nM.
The like results for `CC(C)COC(=O)NC(Cc1ccc(NC(=O)c2cccc(NC(=N)N)c2)cc1)C(=O)O` (stereo not shown) [Example 53, 4-[[[3-[(aminoiminomethyl)amino]phenyl]-carbonyl]amino]-N-[(2-methylpropoxy)carbonyl]-phenylalanine, trifluoroacetate Salt] were, in that order, 15.3 nM and 0.56 nM.
